# In patent US7138361B2, “Herbicidal heterocycles” (E. I. du Pont de Nemours and Company, priority 2000, dated 2006):
# Tests used:
# Assay type in all cases: in vivo
# [1] = tested on: velvetleaf (Abutilon theophrasti); assay: Test B postemergence; conditions: 13 to 15 days
# Procedure, shortened: (§1)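 Seeds were planted and sprayed preemergence with test chemical in a non-phytotoxic solvent mixture containing surfactant; postemergence plants (2 to 18 cm, 1- to 4-leaf stage) received the same formulation. Greenhouse hold 13 to 15 days, then visual rating versus untreated controls on a 0–100 scale (0 no effect, 100 complete control).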
# wild oat (Avena fatua) = assay: Test B postemergence; conditions: 13 to 15 days
# Procedure, shortened: as §1
# corn (Zea mays) [2] = assay: Test B postemergence; conditions: 13 to 15 days
# Procedure, shortened: as §1
# [3] = tested on: lambsquarters (Chenopodium album); assay: Test B postemergence; conditions: 13 to 15 days
# Procedure, shortened: as §1
# [4] = tested on: giant foxtail (Setaria faberii); assay: Test B postemergence; conditions: 13 to 15 days
# Procedure, shortened: as §1
# [5] = tested on: wheat (Triticum aestivum); assay: Test B postemergence; conditions: 13 to 15 days
# Procedure, shortened: as §1
# [6] = tested on: Surinam grass (Brachiaria decumbens); assay: Test B postemergence; conditions: 13 to 15 days
# Procedure, shortened: as §1
# [7] = tested on: crabgrass (Digitaria sanguinalis); assay: Test B postemergence; conditions: 13 to 15 days
# Procedure, shortened: as §1
# [8] = tested on: cocklebur (Xanthium strumarium); assay: Test B postemergence; conditions: 13 to 15 days
# Procedure, shortened: as §1
# [9] = tested on: pigweed (Amaranthus retroflexus); assay: Test B postemergence; conditions: 13 to 15 days
# Procedure, shortened: as §1
# [10] = tested on: barnyardgrass (Echinochloa crus-galli); assay: Test B postemergence; conditions: 13 to 15 days
# Procedure, shortened: as §1
# [11] = tested on: blackgrass (Alopecurus myosuroides); assay: Test B postemergence; conditions: 13 to 15 days
# Procedure, shortened: as §1
# [12] = tested on: morning glory (Ipomoea hederacea); assay: Test B postemergence; conditions: 13 to 15 days
# Procedure, shortened: as §1
# Sunflower = assay: Test C preemergence; conditions: Rate 250 g/ha, scale 0 to 100, 0 no effect, 100 complete control
# [13] = tested on: velvetleaf (Abutilon theophrasti); assay: Test B preemergence
# Procedure, shortened: as §1
# rice (Oryza saliva) = assay: Test B preemergence
# Procedure, shortened: as §1
# corn (Zea mays) [14] = assay: Test B preemergence
# Procedure, shortened: as §1
# [15] = tested on: lambsquarters (Chenopodium album); assay: Test B preemergence
# Procedure, shortened: as §1
# [16] = tested on: giant foxtail (Setaria faberii); assay: Test B preemergence
# Procedure, shortened: as §1
# [17] = tested on: Surinam grass (Brachiaria decumbens); assay: Test B preemergence
# Procedure, shortened: as §1
# [18] = tested on: crabgrass (Digitaria sanguinalis); assay: Test B preemergence
# Procedure, shortened: as §1
# [19] = tested on: cocklebur (Xanthium strumarium); assay: Test B preemergence
# Procedure, shortened: as §1
# [20] = tested on: pigweed (Amaranthus retroflexus); assay: Test B preemergence
# Procedure, shortened: as §1
# [21] = tested on: barnyardgrass (Echinochloa crus-galli); assay: Test B preemergence
# Procedure, shortened: as §1
# [22] = tested on: morning glory (Ipomoea hederacea); assay: Test B preemergence
# Procedure, shortened: as §1
# [23] = Rate 125 g/ha, scale 0 (no effect) to 100 (complete control)
# [24] = Rate 500 g/ha, scale 0 to 100, 0 is no effect, 100 is complete control
# [25] = Preemergence, Rate 500 g/ha, scale 0 to 100, 0 no effect, 100 complete control
# [26] = preemergence, Rate 125 g/ha, scale of 0 to 100 where 0 is no effect and 100 is complete control, 13 to 15 days
smiles,measurement,setting,value
COC(=O)c1cccc(N2CCC(n3ccc(C(C)(C)C)n3)C2=O)c1 (centres unmarked) [Compound 73],"Plant response rating, Velvetleaf",[1]; [23],50
same,"Plant response rating, Velvetleaf",[1]; [24],70
same,"Plant response rating, Wild Oat",wild oat (Avena fatua); [23],0
same,"Plant response rating, Wild Oat",wild oat (Avena fatua); [24],0
same,"Plant response rating, Corn",corn (Zea mays) [2]; [23],30
same,"Plant response rating, Corn",corn (Zea mays) [2]; [24],40
same,"Plant response rating, Lambsquarters",[3]; [23],0
same,"Plant response rating, Lambsquarters",[3]; [24],70
same,"Plant response rating, Foxtail, Giant",[4]; [23],20
same,"Plant response rating, Foxtail, Giant",[4]; [24],50
same,"Plant response rating, Wheat",[5]; [23],0
same,"Plant response rating, Wheat",[5]; [24],0
same,"Plant response rating, Surinam grass",[6]; [23],0
same,"Plant response rating, Surinam grass",[6]; [24],0
same,"Plant response rating, Crabgrass",[7]; [23],0
same,"Plant response rating, Crabgrass",[7]; [24],50
same,"Plant response rating, Cocklebur",[8]; [23],20
same,"Plant response rating, Cocklebur",[8]; [24],90
same,"Plant response rating, Pigweed",[9]; [23],20
same,"Plant response rating, Pigweed",[9]; [24],90
same,"Plant response rating, Barnyardgrass",[10]; [23],30
same,"Plant response rating, Barnyardgrass",[10]; [24],90
same,"Plant response rating, Blackgrass",[11]; [23],0
same,"Plant response rating, Blackgrass",[11]; [24],0
same,"Plant response rating, Morningglory",[12]; [23],20
same,"Plant response rating, Morningglory",[12]; [24],20
same,"Plant response rating, Sunflower",Sunflower,70
same,"Plant response rating, Velvetleaf",[13]; [25],100
same,"Plant response rating, Velvetleaf",[13]; [26],90
same,"Plant response rating, Rice",rice (Oryza saliva); [25],40
same,"Plant response rating, Rice",rice (Oryza saliva); [26],30
same,"Plant response rating, Corn",corn (Zea mays) [14]; [25],30
same,"Plant response rating, Corn",corn (Zea mays) [14]; [26],0
same,"Plant response rating, Lambsquarters",[15]; [25],100
same,"Plant response rating, Lambsquarters",[15]; [26],100
same,"Plant response rating, Foxtail, Giant",[16]; [25],100
same,"Plant response rating, Foxtail, Giant",[16]; [26],100
same,"Plant response rating, Surinam grass",[17]; [25],90
same,"Plant response rating, Surinam grass",[17]; [26],50
same,"Plant response rating, Crabgrass",[18]; [25],100
same,"Plant response rating, Crabgrass",[18]; [26],100
same,"Plant response rating, Cocklebur",[19]; [25],90
same,"Plant response rating, Cocklebur",[19]; [26],0
same,"Plant response rating, Pigweed",[20]; [25],100
same,"Plant response rating, Pigweed",[20]; [26],100
same,"Plant response rating, Barnyardgrass",[21]; [25],100
same,"Plant response rating, Barnyardgrass",[21]; [26],100
same,"Plant response rating, Morningglory",[22]; [25],100
same,"Plant response rating, Morningglory",[22]; [26],0
CCC(CC)c1ccn(C2CCN(c3ccc(C)c(OC)c3)C2=O)n1 (centres unmarked) [Compound 81],"Plant response rating, Velvetleaf",[1]; [23],80
same,"Plant response rating, Velvetleaf",[1]; [24],90
same,"Plant response rating, Wild Oat",wild oat (Avena fatua); [23],0
same,"Plant response rating, Wild Oat",wild oat (Avena fatua); [24],0
same,"Plant response rating, Corn",corn (Zea mays) [2]; [23],10
same,"Plant response rating, Corn",corn (Zea mays) [2]; [24],10
same,"Plant response rating, Lambsquarters",[3]; [23],20
same,"Plant response rating, Lambsquarters",[3]; [24],90
same,"Plant response rating, Foxtail, Giant",[4]; [23],0
same,"Plant response rating, Foxtail, Giant",[4]; [24],0
same,"Plant response rating, Wheat",[5]; [23],0
same,"Plant response rating, Wheat",[5]; [24],0
same,"Plant response rating, Surinam grass",[6]; [23],0
same,"Plant response rating, Surinam grass",[6]; [24],10
same,"Plant response rating, Crabgrass",[7]; [23],0
same,"Plant response rating, Crabgrass",[7]; [24],30
same,"Plant response rating, Cocklebur",[8]; [23],90
same,"Plant response rating, Cocklebur",[8]; [24],100
same,"Plant response rating, Pigweed",[9]; [23],70
same,"Plant response rating, Pigweed",[9]; [24],90
same,"Plant response rating, Barnyardgrass",[10]; [23],0
same,"Plant response rating, Barnyardgrass",[10]; [24],0
same,"Plant response rating, Blackgrass",[11]; [23],0
same,"Plant response rating, Blackgrass",[11]; [24],0
same,"Plant response rating, Morningglory",[12]; [23],80
same,"Plant response rating, Morningglory",[12]; [24],100
same,"Plant response rating, Sunflower",Sunflower,0
same,"Plant response rating, Velvetleaf",[13]; [25],80
same,"Plant response rating, Velvetleaf",[13]; [26],70
same,"Plant response rating, Rice",rice (Oryza saliva); [25],90
same,"Plant response rating, Rice",rice (Oryza saliva); [26],50
same,"Plant response rating, Corn",corn (Zea mays) [14]; [25],30
same,"Plant response rating, Corn",corn (Zea mays) [14]; [26],0
same,"Plant response rating, Lambsquarters",[15]; [25],100
same,"Plant response rating, Lambsquarters",[15]; [26],100
same,"Plant response rating, Foxtail, Giant",[16]; [25],100
same,"Plant response rating, Foxtail, Giant",[16]; [26],100
same,"Plant response rating, Surinam grass",[17]; [25],100
same,"Plant response rating, Surinam grass",[17]; [26],90
same,"Plant response rating, Crabgrass",[18]; [25],100
same,"Plant response rating, Crabgrass",[18]; [26],100
same,"Plant response rating, Cocklebur",[19]; [25],90
same,"Plant response rating, Cocklebur",[19]; [26],0
same,"Plant response rating, Pigweed",[20]; [25],100
same,"Plant response rating, Pigweed",[20]; [26],100
same,"Plant response rating, Barnyardgrass",[21]; [25],100
same,"Plant response rating, Barnyardgrass",[21]; [26],100
same,"Plant response rating, Morningglory",[22]; [25],100
same,"Plant response rating, Morningglory",[22]; [26],30
